Publication PMC5707067, “Farnesyl phenolic enantiomers as natural MTH1 inhibitors from Ganoderma sinense” (Oncotarget, 2017)

Legend:
[1] = tested on: human osteosarcoma cells (U2OS); experiment: CCK8 cytotoxicity assay, U2OS; format: cell-based; details: CCK8, 48 h, carcinoma cell line
From the text: (§1) The growth inhibitory effects of the isolated farnesyl phenolic compounds (1–8) against carcinoma cell lines [human osteosarcoma cells (U2OS), human colorectal carcinoma cells (SW620), human ES-2 ovarian carcinoma cells (ES-2)] and normal tissue cell lines [human hepatic cells (Lo2), African green monkey kidney vero cells (Vero)] were further investigated using CCK8 assay method (Table 3).
(§2) Carcinoma cell lines [human osteosarcoma cells (U2OS), human colorectal carcinoma cells (SW620), human ES-2 ovarian carcinoma cells (ES-2)] and normal tissue cell lines [human hepatic cells (Lo2), African green monkey kidney Vero cells (Vero)] The U2OS, SW620, ES-2, Lo2 and Vero were obtained from ATCC (Manassas, VA, USA). The SW620 and Vero cells were cultured in Roswell Park Memorial Institute medium (RPMI), with 10% fetal bovine serum (Hyclone) and 1% penicillin-streptomycin (Sigma). Lo2, U2OS and ES-2 cells were grown in Dulbecco's modified eagle medium (DMEM), with 10% fetal bovine serum (Hyclone) and 1% penicillin-streptomycin (Sigma). All of these cells were cultured at 37°C in a humidified atmosphere with 5% CO2. For CCK8 assay cytotoxicity evaluation of compounds, all cells were separately plated at a density of 1 × 10^4 cells/well in a 96 well plate. Cells were cultivated at 37°C in 5% CO2 atmosphere for 24 h, then medium in the wells was replaced with fresh medium containing compounds which were diluted in 8 dilution steps covering the range from 200 μM to 1.5625 μM. And DMSO was used as negative control. After 48 h incubation, 10 μL of CCK8 solution was added to each well. After 30 min, the optical density (OD) of each well was measured at wavelength of 450 nm on spectrophotometer. Data were corrected for background (no-cell control) and expressed as a percentage of the value for untreated cells. The IC50 values of the isolated compounds were derived from the mean OD values of the triplicate tests versus the drug concentration curves.

[2] = tested on: human colorectal carcinoma cells (SW620); experiment: CCK8 cytotoxicity assay, SW620; format: cell-based; details: CCK8, 48 h, carcinoma cell line
From the text: as §1, §2

[3] = tested on: human ES-2 ovarian carcinoma cells (ES-2); experiment: CCK8 cytotoxicity assay, ES-2; format: cell-based; details: CCK8, 48 h, carcinoma cell line
From the text: as §1, §2

[4] = CCK8 cytotoxicity assay, Lo2; format: cell-based, human; details: human, Lo2 human hepatic cells (normal tissue cell line), CCK8, 48 h
From the text: as §1, §2

[5] = CCK8 cytotoxicity assay, Vero; format: cell-based, African green monkey; details: African green monkey, Vero kidney cells (normal tissue cell line), CCK8, 48 h
From the text: as §1, §2

[6] = biological target: T1, MTH1 (Homo sapiens, UniProt P36639); experiment: Microscale thermophoresis (MST) binding assay
Procedure: Microscale thermophoresis method (MST) was employed to assay the binding affinity between the compounds and MTH1. […] The dissociation constant Kd values were automatically calculated by using the NT Analysis software (Nano Temper Technologies, München, Germany).
Recombinant human MTH1 was labeled with the Monolith NT™ Protein Labeling Kit RED (Cat#L001) according to the supplied labeling protocol [32]. Labelled MTH1 was kept constant at 100 nM, while all samples tested were diluted in a 20 mM HEPES (pH 7.5) and 0.05 (v/v) % Tween-20. Compounds were diluted in 12 dilution steps covering the range from 500 μM to 200 nM. After 10 min incubation at room temperature about 37°C, samples were loaded into Monolith™ standard-treated capillaries and the thermophoresis was measured at 25°C after 30 min incubation on a Monolith NT.115 instrument (NanoTemper Technologies, München, Germany). Laser power was set to 20% using 30 seconds on-time. The LED power was set to 100%. The dissociation constant Kd values were fitted by using the NTAnalysis software (NanoTemper Technologies, München, Germany). The Kd value of the binding was obtained in two ways. The first way was calculated by thermophoresis curve when there was no fluorescent change during the initial fluorescence scanning. The second way was calculated from the initial fluorescence scanning curve when compounds bound in the sites which directly interfered the fluorescence.

[7] = biological target: T1, MTH1; experiment: Enzyme inhibition assay (8-oxo-dGTP hydrolysis, HPLC); format: biochemical; design: hexa-histidine (His6) (N, cleaved yes); made in house; host or cells: E. coli BL21 Star; details: 8-oxo-dGTP 25 μM, purified MTH1
Procedure: Microscale thermophoresis method (MST) was employed to assay the binding affinity between the compounds and MTH1. This technology can quantify protein-protein interactions or protein-small molecule interactions with high sensitivity through detecting fluorescent changes of molecules during thermophoresis.
To identify the efficacy of the eight compounds, an enzyme inhibition assay was carried out. […] Then the reaction was stop by the addition of 20 μL ice-cold Na2EDTA (50 mM). The reaction mixture was centrifugated at 15000 rpm at 4°C for 10 min. 20 μL of supernatant was injected on an HPLC column (Ultimate AQ-C18 RP-18e, 250 mm × 4.6 mm × 5 μm), and eluted isolate with 100 mM Na2HPO4-NaOH (pH 5.5)/MeOH 95:5 with flow rate 1 mL/min at column room of 30°C. […] Measurements were done in triplet, and IC50 values were calculated to compare the efficiency of various compounds.

[8] = tested on: human hepatic cells (Lo2); experiment: CCK8 cytotoxicity assay, Lo2; format: cell-based; details: CCK8, 48 h, normal tissue cell line
From the text: as §1, §2

[9] = tested on: African green monkey kidney vero cells (Vero); experiment: CCK8 cytotoxicity assay, Vero; format: cell-based; details: CCK8, 48 h, normal tissue cell line
From the text: as §1, §2

[10] = Homo sapiens, Ovarian carcinoma cell

Kd [6] [µM] | IC50 [7] [µM] | SMILES | IC50 ([1]; Homo sapiens, U2OS) [µM] | IC50 ([2]; Homo sapiens, SW-620) [µM] | IC50 [3, 10] [µM] | IC50 at 48 h [4] [µM] | IC50 at 48 h [5] [µM] | IC50 [1] [µM] | IC50 [2] [µM] | IC50 [3] [µM] | IC50 [8] [µM] | IC50 [9] [µM]
246 ± 38.7 | 22.9 ± 1.04 | C/C(=C\CCC(CO)CCCC1=C[C@H](c2cc(O)ccc2O)OC1=O)COC(=O)/C=C/c1ccc(O)cc1 (stereo partly drawn) [Compound 3, (5R)-3-{9-[(E)-coumaroyl]-4-hydroxymethyl-8-methyl-7-nonene}-5-(2,5-dihydroxyphenyl)-2(5H)-furanone] | 73.2 ± 1.24 | 70.9 ± 1.08 | 90.6 ± 1.12 | > 300 | > 300 |  |  |  |  | 
210 ± 42.7 | 26.6 ± 1.03 | CO[C@@]1(c2cc(O)cc(O)c2)C=C(CC/C=C(\CO)CC/C=C(\C)COC(=O)/C=C/c2ccc(O)cc2)C(=O)O1 [Compound 8] | 95.4 ± 1.05 | 55.2 ± 1.16 | 60.9 ± 1.34 | > 300 | > 300 |  |  |  |  | 
 |  | C[C@H](Oc1cc(-c2cnn(C3CCNCC3)c2)cnc1N)c1c(Cl)ccc(F)c1Cl [(S)-crizotinib, reference compound] |  |  |  |  |  | 32.3 ± 1.28 | 17.5 ± 1.11 | 9.09 ± 1.06 | 26 ± 1.2 | 16.7 ± 1.15
103 ± 32.1 | 28.5 ± 1.05 | CO[C@]1(c2cc(O)cc(O)c2)C=C(CC/C=C(\CO)CC/C=C(\C)COC(=O)/C=C/c2ccc(O)cc2)C(=O)O1 [Compound 7] | 96.3 ± 1.13 | 101 ± 1.07 | 74.5 ± 1.17 | > 300 | > 300 |  |  |  |  | 
296 ± 13.3 | 16.3 ± 1.03 | CO[C@]1(c2cc(O)ccc2O)C=C(CCCC(CO)CC/C=C(\C)COC(=O)/C=C/c2ccc(O)cc2)C(=O)O1 (stereo partly drawn) [Compound 5, (5R)-3-{9-[(E)-coumaroyl]-4-hydroxymethyl-8-methyl-7-nonene}-5-(2,5-dihydroxyphenyl)-5-methoxy-2(5H)-furanone] | 64.4 ± 1.08 |  | 80.1 ± 3.56 | > 300 | > 300 |  |  |  |  | 
4.63 ± 0.519 | 22.9 ± 1.07 | C/C(=C\CCC(CO)CCCC1=C[C@@H](c2cc(O)ccc2O)OC1=O)COC(=O)/C=C/c1ccc(O)cc1 (stereo partly drawn) [Compound 4, (5S)-3-{9-[(E)-coumaroyl]-4-hydroxymethyl-8-methyl-7-nonene}-5-(2,5-dihydroxyphenyl)-2(5H)-furanone] | 66.4 ± 1.11 | 56.5 ± 1.15 | 64.2 ± 1.28 | 279.1 ± 2.17 | > 300 |  |  |  |  | 
2.38 ± 0.663 | 11 ± 1.03 | CO[C@@]1(c2cc(O)cc(O)c2)C=C(CCCC(CO)CC/C=C(\C)COC(=O)/C=C/c2ccc(O)cc2)C(=O)O1 (stereo partly drawn) [Compound 2, (5S)-3-{9-[(E)-coumaroyl]-4-hydroxymethyl-8-methyl-7-nonene}-5-(3,5-dihydroxyphenyl)-5-methoxy-2(5H)-furanone] | 54.2 ± 1.1 | 104 ± 1.07 | 76.8 ± 1.09 | > 300 | 260.4 ± 1.16 |  |  |  |  | 
113 ± 25.4 | 8.62 ± 1.03 | CO[C@@]1(c2cc(O)ccc2O)C=C(CCCC(CO)CC/C=C(\C)COC(=O)/C=C/c2ccc(O)cc2)C(=O)O1 (some centres unmarked) [Compound 6] | 57.8 ± 1.07 | 53.7 ± 1.06 | 37.3 ± 3.56 | > 300 | > 300 |  |  |  |  | 
